Source: patent publication US20240299412A1, “DRUG FORMULATIONS OF 4-(3,3-DIFLUORO-2,2-DIMETHYL-PROPANOYL) -3,5-DIHYDRO-2H-PYRIDO[3,4-f][1,4]OXAZEPINE-9-CARBONITRILE” (Genzyme Corporation, priority 2023, published 2024)

Assays:
Type in all cases: physicochemical
Solid form screening = conditions: 96 solid form screening experiments
Experimental: A total of 96 solid form screening experiments were performed using different crystallization or solid transformation methods.

[1] = pKa measurement (Sirius T3, UV metric method); conditions: MeOH as solvent, Yasuda-Shedlovsky extrapolation, ionic strength 0.176M, 28.9° C., to be taken as reference (effective range pH 2-12)
Experimental: pKa. The pKa was measured by a Sirius pKa log P/D tester (model: T3) with a UV detector (UV metric method) using MeOH as solvent.
In addition, the pKa value of Compound (1) starting material was measured to be 1.68 by a Sirius pKa log P/D tester (model: T3) with a UV detector (UV metric method) using MeOH as solvent. The pKa value should be taken as reference because the effective pH range of UV metric method is pH 2-12.

Cohesion evaluation = assay: Cohesion evaluation
Excerpt: Different options were explored to improve the cohesion property of the tablet, for example, by change of lactose and mannitol grades (standard grade in place of Spray Dried grade), using anhydrous lactose in place of monohydrate lactose Spray-Dried, using different ratios of lactose/mannitol, or using pregelatinized corn starch instead of mannitol, but only a decrease of tablet cohesion was observed.

CC(C)(C(=O)N1CCOc2c(C#N)cncc2C1)C(F)F [Compound 1, 4-(3,3-difluoro-2,2-dimethyl-propanoyl)-3,5-dihydro-2H-pyrido[3,4-f][1,4]oxazepine-9-carbonitrile]
crystal forms observed from screening (Solid form screening): Only one crystal form
pKa [1]: 1.68
cohesion property of the drug substance (Cohesion evaluation): very low cohesion property
